Counter-ions that a name gives are not always drawn. Like-named read-outs stand apart in the source and are kept apart here.

The source of these data is PMC5363699, “Transcriptional, Functional, and Mechanistic Comparisons of Stem Cell–Derived Hepatocytes, HepaRG Cells, and Three-Dimensional Human Hepatocyte Spheroids as Predictive In Vitro Systems for Drug-Induced Liver Injury” (Drug Metabolism and Disposition, 2017).

One data set deals with PHH spheroids. Kind of data set: Viability (cellular ATP, CellTiter-Glo) of 3D PHH spheroids after single or repeated exposure. It is filed as cell-based, human. The note with it: for EC50: read-out: EC50 (viability).
The subject of the next data set is HepG2. The note with it: cited from earlier work.
For data set [1] the following is noted: cited from earlier work; for Cmax: human.
For a further data set, the system named is hiPS-Hep cells. Kind of data set: Viability (cellular ATP, CellTiter-Glo) of hiPS-Hep cells after single or repeated exposure. It counts as cell-based. The note with it: Homo sapiens; for EC50: read-out: EC50 (viability); for IC50: read-out: 14-day IC50. In general terms: In ATP-based viability assays light output follows the ATP content of the culture.
The subject of another data set is HepaRG. The note with it: cited from earlier work.
A further data set deals with HepaRG cells. Kind of data set: cells. Conditions: Homo sapiens; for EC50: read-out: EC50 (viability). It counts as cell-based.
For a further data set, the system named is HLC. Also noted: method as in Takayama et al. (2013), Tasnim et al. (2016). Conditions: read-out: Sensitivity, HLC Acute, cited from earlier work.
For data set [2] the following is noted: 4 g APAP daily for 14 days; ref Watkins et al., 2006; cited from earlier work.
The test system of a further data set is Rat Hepatocytes. Also noted: method as in Schutte et al. (2011). Conditions: published model, acute; ref Schutte et al. (2011); read-out: Sensitivity, Rat Hepatocytes Acute; cited from earlier work.
For another data set, the system named is C3A. More on the design: method as in Fey and Wrzesinski (2012). Conditions: published spheroid model, acute; ref Fey and Wrzesinski (2012); read-out: Sensitivity, C3A Acute; cited from earlier work.
The subject of the next data set is BSEP. More on the design: method as in Funk et al., 2001. The note with it: ref Funk et al., 2001; read-out: IC50 of BSEP inhibition; cited from earlier work.
[3] abbreviates: published spheroid model, acute, ref Mueller et al. (2014), Ramaiahgari et al. (2014), Takayama et al. (2013), read-out: Sensitivity, HepG2 Acute.
[4] abbreviates: 336 h, hiPS-Hep cells, 14 days repeated exposure.
The mark [5] stands for this setting: published spheroid model, acute, ref Gunness et al. (2013), Mueller et al. (2014), read-out: Sensitivity, HepaRG Acute.
The mark [6] stands for this setting: 336 h, HepaRG cells, 14 days repeated exposure, read-out: 14-day IC50.
Where [7] appears, read: published spheroid model, repeated dose 6 days, ref Ramaiahgari et al. (2014), read-out: Sensitivity, HepG2 Repeated Dose (6 Days).
The mark [8] stands for this setting: published spheroid model, acute, ref Takayama et al. (2013), Tasnim et al. (2016).

In general, EC50 refers to the concentration that produces a half-maximal response. Usually Cmax stands for the maximum level reached in the sampled fluid or tissue. In the case of `CN(C)CCCN1c2ccccc2Sc2ccc(Cl)cc21` [Chlorpromazine, chlorpromazine], the EC50 with PHH spheroids (Homo sapiens, 48 h) was 16.6 µM; in the data set with PHH spheroids (Homo sapiens, 168 h), 8.8 µM; in the data set with PHH spheroids (Homo sapiens, 336 h) it was 4.6 µM; in the data set on hiPS-Hep cells (48 h), 38.6 µM; in the data set on hiPS-Hep cells (168 h) it was 23.7 µM; in the data set with hiPS-Hep cells (336 h), 24.4 µM. For the same compound, the EC50 in the data set on HepaRG cells (HepaRG, 48 h) amounted to 67 µM; in the data set on HepaRG cells (HepaRG, 168 h), 32.4 µM; with HepaRG cells (HepaRG, 336 h) it was 34.1 µM. Further, the IC50 in the data set with HepG2 (setting [3]) was 43 µM; in the data set with hiPS-Hep cells (setting [4]), 24.6 µM; in the data set on HepaRG (setting [5]), 98 µM; with HepaRG (published spheroid model, repeated dose 72 h, ref Mueller et al. (2014), read-out: Sensitivity, HepaRG Repeated Dose (72 h)), 43 µM; in the data set with HepaRG cells (setting [6]), 34.1 µM. Further, the Cmax in data set [1] (read-out: human toxic Cmax, toxic exposure, ref Regenthal et al., 1999) is 1600 nM.
With `CCOC(=O)CN[C@@H](C(=O)N1CC[C@H]1C(=O)NCc1ccc(/C(N)=N\O)cc1)C1CCCCC1` [Ximelagatran, ximelagatran], the EC50 in the data set with PHH spheroids (Homo sapiens, 48 h) was > 400 µM; in the data set with PHH spheroids (Homo sapiens, 168 h), 379 µM; with PHH spheroids (Homo sapiens, 336 h), 165 µM; with hiPS-Hep cells (48 h), > 400 µM; in the data set with hiPS-Hep cells (168 h) it was > 400 µM; in the data set on hiPS-Hep cells (336 h), > 400 µM. Also, the EC50 with HepaRG cells (HepaRG, 48 h) was > 400 µM; with HepaRG cells (HepaRG, 168 h), > 400 µM; in the data set on HepaRG cells (HepaRG, 336 h), > 400 µM.
Regarding aflatoxin B1, the IC50 in the data set with PHH spheroids (read-out: Sensitivity, PHH Acute) is 0.4 µM; in the data set with PHH spheroids (read-out: Sensitivity, PHH Repeated Dose (14 Days)), 0.03 µM; in the data set with HepG2 (read-out: Sensitivity, HepG2 Acute), > 200 µM; in the data set on HepaRG (read-out: Sensitivity, HepaRG Acute), 1.6 µM; in the data set on HLC, 7 µM. Also, the “exposure levels detected in exposed individuals” value in data set [1] (in vivo) is on record as 28.5 nM. Also, in data set [1] (read-out: Cmax or exposure value (toxic), in vivo), the Cmax was 30 nM.
Turning to `Cc1c(C)c2c(c(C)c1O)CCC(C)(COc1ccc(CC3SC(=O)NC3=O)cc1)O2` (stereo not drawn) [Troglitazone, troglitazone], the EC50 was 37.4 µM in the data set on PHH spheroids (Homo sapiens, 48 h); 4.2 µM in the data set on PHH spheroids (Homo sapiens, 168 h); 1.5 µM in the data set on PHH spheroids (Homo sapiens, 336 h); 46 µM in the data set with hiPS-Hep cells (48 h); 33.9 µM with hiPS-Hep cells (168 h); 18.7 µM with hiPS-Hep cells (336 h). The EC50 in the data set on HepaRG cells (HepaRG, 48 h) is > 100 µM; with HepaRG cells (HepaRG, 168 h), 36.5 µM; with HepaRG cells (HepaRG, 336 h) it was 34.6 µM. The IC50 is 37.4 µM with PHH spheroids (Homo sapiens, read-out: Sensitivity, PHH Acute); 80 to 150 µM in the data set on HepG2 (setting [3]); 100 µM in the data set with HepG2 (setting [7]); 18.7 µM in the data set with hiPS-Hep cells (336 h); 400 µM in the data set on HepaRG (setting [5]); 50 µM in the data set with HLC (setting [8]). In the data set on HepaRG cells (HepaRG, 336 h, read-out: 14-day IC50), the IC50 was 34.6 µM. In addition, the Cmax in data set [1] (read-out: therapeutic Cmax, ref Loi et al., 1999) is 2820 nM.
For `CC(=O)Nc1ccc(O)cc1` [APAP, acetaminophen], the EC50 with PHH spheroids (Homo sapiens, 48 h) is > 10000 µM; in the data set on PHH spheroids (Homo sapiens, 168 h), 2700 µM; in the data set with PHH spheroids (Homo sapiens, 336 h), 644 µM; with hiPS-Hep cells (48 h), > 10000 µM; in the data set on hiPS-Hep cells (168 h), > 10000 µM; in the data set on hiPS-Hep cells (336 h), 9440 µM. Moreover, the EC50 with HepaRG cells (HepaRG, 48 h) was 5920 µM; in the data set with HepaRG cells (HepaRG, 168 h), 1590 µM; with HepaRG cells (HepaRG, 336 h), 1310 µM. Besides, the IC50 is 644 µM with PHH spheroids (Homo sapiens, 336 h, PHH spheroids, 14 days repeated exposure, read-out: 14-day IC50); 24000 µM with HepG2 (setting [3]); 9400 µM in the data set on HepG2 (setting [7]); 9440 µM in the data set with hiPS-Hep cells (setting [4]); 3000 µM in the data set with HepaRG (setting [5]); 30000 µM in the data set with HLC (setting [8]). For the same compound, the IC50 in the data set on HepaRG cells (setting [6]) is 1310 µM; in the data set with HepaRG cells (read-out: 48-hour IC50, HepaRG cells, acute, 48 hours), 5920 µM; with Rat Hepatocytes it was 40000 µM; in the data set with C3A, 40000 µM. Moreover, in [1] (healthy volunteers, 4 g APAP daily for 14 days, ref Watkins et al., 2006), the “peak APAP serum level average” value is 99.2 µM. Besides, the “APAP plasma concentration for which immediate treatment is stipulated” value in [1] (patients after acute overdose, depending on additional risk factors, ref Vale and Proudfoot, 1995) was 0.7 to 1.3 mM. In data set [1] (read-out: Cmax or exposure value (toxic), toxic exposure, ref Vale and Proudfoot, 1995), the Cmax was 700000 nM. Further, the “healthy volunteers with serum alanine aminotransferase elevations above three times the upper limit” value in data set [2] is reported as 31%–44%.
With `Cc1c(C)c2c(c(C)c1OS(=O)(=O)O)CCC(C)(COc1ccc(CC3SC(=O)NC3=O)cc1)O2` (stereo not drawn) [troglitazone sulfate], the IC50 in the data set on BSEP is 0.4 µM.
